In US20220267390A1, “MPS MODIFIED PEPTIDES AND USE THEREOF” (The Regents of the University of California, priority 2019, published 2022):
Where a SMILES comes first, the peptide text is derived from it. [ ]: non-standard residue; d: D form.

What was measured:
[1] = tested on: normal fibroblasts; test: Normal lung fibroblast proliferation (MTS/MTT assay); format: cell-based, human; settings: 1 μM
Description: (§1) FIG. 14: Comparison of MPS-12042 (SEQ ID NO: 45) versus know tyrosine kinase inhibitor (TKLs) on the treatment of IPF fibroblast cells. Both normal and IPF lung fibroblast cells were treated with various drugs. After 72 hours, cells were subjected to MTT assays and IC50 for each drug was determined.
Human primary fibroblast cells were obtained from airway tissues provided from the UC Davis Medical Hospital (Sacramento, Calif.) with consent. The protocol for human tissue procurement and usage were periodically reviewed and approved by the University Human Subject Research Review Committee. Primary fibroblast cell lines, IPF-1 and IPF-2 cells, were established from IPF patients. […]
Cells were seeded onto 96-well plates at a density of 5-10×10^3 cells per well and cultured for the indicated treatment. Cell proliferation was evaluated using a MTS assay kit (Promega, Madison, Wis.). Twenty microliters of the combined MTS/PMS solution was added into each well, incubated for 3 hours at 37° C., and the absorbance was measured at 490 nm by using an ELISA reader. […] After 72 hours, both attached and detached cells were collected and then stained with 0.2% trypan blue (0.1% final concentration), and the number of trypan blue-positive and -negative cells was counted using a haemocytometer under low-power microscopy. […]

[2] = tested on: H1650 cells; format: cell-based
Description: IC50 (half maximal inhibitory concentration; μM) values in lung cancer cells. […] The residues marked in red/bold are D-isoforms of amino acids (SEQ ID NOS: 57, 48-54, 40-42 45 and 47 in order of appearance).
Molecular basis of MPS peptide and its potential for increasing nintedanib efficacy. […] A kinetic assay confirmed that this peptide binds PIP2 with a dissociation constant of 17.64 nM (FIG. 10B). As expected, a decrease of PIP3 pools in whole cell lysates of MPS-treated IPF fibroblasts was observed (FIG. 10C), supporting the notion that MPS peptide is able to inhibit AKT activation through trapping PIP2. In view of adverse effects of the current IPF therapeutic nintedanib^9, 10, there is an urgent clinical need to improve the efficacy of such treatment in IPF. Since the TGF-β receptor is not a direct target of nintedanib, targeting an element of TGF-β signaling in tandem with nintedanib administration circumvents the shortcomings of nintedanib monotherapy. […] Based on the above observations, it is assumed that TGF-β-directed phospho-MARCKS is a bypass mechanism of activating PI3K/AKT signaling (FIG. 11B); therefore, it seems reasonable that MARCKS inhibition by MPS treatment may improve nintedanib efficacy, permitting lower doses of nintedanib to be used. To this end, the possibility of a synergistic interaction between MPS and nintedanib in order to circumvent the shortcomings of nintedanib monotherapy was tested. […] Furthermore, the Chou and Talalay CI (combination index) method^25 was used to evaluate the therapeutic interactions between nintedanib and MPS peptide. […] Particularly, the values were lower than 1 at ED50, approximately 1 at ED75, and above 1 at ED90 (data not shown). Thus, the combination effect was dose-dependently correlated with the components, and therefore low dose nintedanib in combination with low dose of MPS presents a synergistic effect on cell proliferation. […] On the basis of the sequences of MPS peptide, the rearrangement of PIP2-binding sites in this peptide were designed and synthesized with the intention of enhancing the efficacy and stability of the MPS peptide. FIG. 13 lists the sequences of various MPS derivatives. In light of the cleavage sites of various proteases and PIP2 binding motifs, Applicant replaced some L-isoform amino acids with D-isoform and these peptides were named as MPS-12042 and MPS-22026. To further validate the efficacy of the above MPS derivatives, Applicant performed a dose-course analysis of H1650 cells undergoing each MPS derivative treatment.

[3] = tested on: IPF fibroblast cells; test: cells; format: cell-based, human
Description: as §1
Human primary fibroblast cells were obtained from airway tissues provided from the UC Davis Medical Hospital (Sacramento, Calif.) with consent. The protocol for human tissue procurement and usage were periodically reviewed and approved by the University Human Subject Research Review Committee. Primary fibroblast cell lines, IPF-1 and IPF-2 cells, were established from IPF patients. Cells were obtained from lung biopsies and the diagnosis of IPF was supported by patient history, physical examination, pulmonary function tests, and typical high-resolution chest computed tomography findings of IPF. […] All patients fulfilled the criteria for the diagnosis of IPF as established by the American Thoracic Society and European Respiratory Society. Non-fibrotic primary control adult human lung fibroblast lines, Normal-1 and Normal-2 cells were used. These lines were established from normal lung tissue or histologically normal lung tissue adjacent to carcinoid tumor. The IPF cell line, LL97A, was purchased from the American Type Culture Collection (ATCC) (Manassas, Va.). Lung fibroblast lines were cultured in high-glucose DMEM or RPMI-1640 medium with 10% fetal bovine serum and 1% penicillin-streptomycin at 37° C. in a humidified atmosphere of 5% CO2. Fibroblasts were used between passages 4 and 8. Cells were characterized as fibroblasts as described^26.
Cells were seeded onto 96-well plates at a density of 5-10×10^3 cells per well and cultured for the indicated treatment. Cell proliferation was evaluated using a MTS assay kit (Promega, Madison, Wis.). Twenty microliters of the combined MTS/PMS solution was added into each well, incubated for 3 hours at 37° C., and the absorbance was measured at 490 nm by using an ELISA reader. For Trypan blue test, cells were plated on 12-well plates and treated with the indicated chemotherapeutic agents. After 72 hours, both attached and detached cells were collected and then stained with 0.2% trypan blue (0.1% final concentration), and the number of trypan blue-positive and -negative cells was counted using a haemocytometer under low-power microscopy. For colony-forming assays, 200 cells were seeded in each well of six-well plates. IPF-1 or IPF-2 primary cells were treated with peptides at the indicated concentrations for 10 days. Colonies were stained using 0.001% crystal violet and the number of colonies with a diameter greater than 0.5 mm was counted under an inverted microscope.

[4] = tested on: bleomycin-induced pulmonary fibrosis; test: Bleomycin-induced pulmonary fibrosis; format: in vivo, C57BL/6J mice; settings: 7 mg/kg i.p. every two days, against nintedanib (28 mg/kg) and MPS peptide (28 mg/kg)
Description: FIGS. 20A and 20B show suppressive effects of MPS peptide on pulmonary fibrosis in vivo. C57BL/6 mice were intraperitoneally given either PBS, nintedanib (28 mg/kg), MPS peptide (28 mg/kg) or MPS-12042 (7 mg/kg) at the dosage of every two days after 9 days of intratracheal exposure with one shot of saline or bleomycin (33 μg in […] of saline, n=5). (FIG. 20A) Representative Masson trichrome and immunohistochemical staining of phospho-MARCKS (Ser159/163) and phospho-AKT (Ser473) (n=6). (FIG. 20B) Hydroxyproline level in the left lung of mice as described above was determined by a hydroxyproline ELISA assay (mean±SD, *p<0.05).
MPS peptide potentially serves as an antifibrotic agent in bleomycin-induced pulmonary fibrosis. Bleomycin remains the standard agent for induction of experimental pulmonary fibrosis in animals^23. Thus, 8-week-old female C57BL/6J mice received saline or bleomycin intratracheally (33 μg in […] of saline) as previously described^23. Lung specimens from bleomycin- or saline-treated mice were collected and subjected to immunofluorescence staining. […] Next, lung fibroblast cells isolated from saline- or bleomycin-treated mice (two mice fibroblast cell lines were gifts from Dr. Sem H. Phan, University of Michigan School of Medicine, MI) were incubated with either 100 μM control or MPS peptide for 48 hours. […]

- IC50 [2]: 6 µM
SMILES: CC(C)C[C@@H](NC(=O)[C@@H](CCCCN)NC(=O)[C@@H](Cc1ccccc1)NC(=O)[C@H](C)NC(=O)[C@H](CCCCN)NC(=O)[C@@H](CCCCN)NC(=O)[C@@H](Cc1ccccc1)NC(=O)[C@H](C)NC(=O)[C@@H](Cc1ccccc1)NC(=O)[C@@H](CCCNC(=N)N)NC(=O)[C@H](CCCCN)NC(=O)[C@H](CCCCN)NC(=O)[C@H](CCCCN)NC(=O)[C@H](CCCCN)NC(=O)[C@@H](N)CCCCN)C(=O)N[C@@H](C)C(=O)NCC(=O)N[C@H](Cc1ccccc1)C(=O)N[C@H](C)C(=O)N[C@H](Cc1ccccc1)C(=O)N[C@H](CCCCN)C(=O)N[C@@H](CCCCN)C(=O)N[C@@H](CC(N)=O)C(=O)N[C@H](CCCCN)C(=O)N[C@@H](CCCCN)C(=O)O [MPS-12042] (H-KKKKK[dR][dF]A[dF][dK]KA[dF][dK][dL]AG[dF][dA][dF][dK]KN[dK]K-OH; N-terminus and C-terminus assumed)
- decreased cell proliferation [1]: not in normal fibroblasts
- decreased cell proliferation ([3]; 1 μM, IPF fibroblast): 50%
- IC50 ([3]; 72 h): 1 to 1.5 µM
- attenuating phospho-MARCKS and phospho-AKT, reducing overall fibrosis and extracellular matrix deposition in mouse lungs [4]: superior efficacy
